Data: ChEMBL document CHEMBL1145593, “Design, synthesis and evaluation of potent thymidylate synthase X inhibitors” (Bioorg Med Chem Lett, 2008)
The source made the active and inactive calls. No cut-off for these calls is given here.

What was measured:
[1] = biological target: T1, Probable flavin-dependent thymidylate synthase (Paramecium bursaria Chlorella virus 1) (UniProt O41156); test: Inhibition of PBCV1 Thymidylate synthase X in presence of triton X100 surfactant
T1 sequence (whole entry): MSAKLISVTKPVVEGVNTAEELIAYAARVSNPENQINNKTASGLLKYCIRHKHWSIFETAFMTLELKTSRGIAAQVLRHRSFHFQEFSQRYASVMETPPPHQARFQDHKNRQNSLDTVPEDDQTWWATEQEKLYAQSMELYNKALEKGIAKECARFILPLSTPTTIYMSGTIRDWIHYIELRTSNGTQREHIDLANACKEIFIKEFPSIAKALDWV

[2] = biological target: T2, Probable flavin-dependent thymidylate synthase (Paramecium bursaria Chlorella virus 1, UniProt O41156); test: Inhibition of PBCV1 Thymidylate synthase X
T2 sequence (O41156 whole entry): T1 sequence (whole entry)

[3] = biological target: T1, Probable flavin-dependent thymidylate synthase (Paramecium bursaria Chlorella virus 1); test: Reversal of inhibition of PBCV1 Thy X at 20 uM in presence of dUMP
[4] = biological target: T1, Probable flavin-dependent thymidylate synthase (Paramecium bursaria Chlorella virus 1); test: Inhibition of PBCV1 Thymidylate synthase X in presence of bovine serum albumin surfactant

Row | SMILES | Activity [1] | IC50 [2] | Ki [2] | Activity [3] | Activity [4]
1 | CCOC(=O)[C@@H]1CSC(c2ccccc2)N1C(=O)c1cn(CCCNC(=O)C(F)(F)F)nn1 (stereo partly drawn) | Active | 57 nM | 57 nM | inactive | Active
2 | CCOC(=O)[C@@H]1CSC(c2ccccc2)N1C(=O)c1cn(CCCCCCCO)nn1 (stereo partly drawn) | – | – | 3500 nM | – | –
3 | CCOC(=O)[C@@H]1CSC(c2ccccc2)N1C(=O)c1cn(CCc2ccsc2)nn1 (stereo partly drawn) | – | – | 1000 nM | – | –
4 | CCCCCCC(=O)N(CC(=O)O)C[C@@H]1CSC(c2ccccc2)N1C(=O)c1ccccc1 (stereo partly drawn) | Active | 130 nM | 130 nM | Active | Active
5 | CCOC(=O)[C@@H]1CSC(c2ccccc2)N1C(=O)c1cn(CCc2ccc(F)cc2)nn1 (stereo partly drawn) | – | – | 2000 nM | – | –
